Results published in the supplement of paper PMC11781733.
Counter-ions that a name gives are not always drawn.

Columns and labels:
Settings in all cases: exposure time: 15 min to 3 h acute
Dugesia japonica [1] = test: crawl-out incidence (% planarians); higher = higher incidence or increase relative to vehicle control
Experimental: (§1)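 Adult asexual Dugesia japonica planarians (1 per well, 48-well plate, n=24 over technical triplicates) were exposed acutely (15 min to 3 h) to each compound (0.5% DMSO or water vehicle) and screened on a robotic platform for crawl-out, stickiness, body shape, phototaxis, noxious-heat scrunching and locomotion endpoints. Binary endpoints are incidence rate x100. Continuous endpoints are the median response normalised to the plate vehicle median, as % change or difference. Negative incidences after vehicle subtraction were set to 0.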

Dugesia japonica [2] = test: speed in dark vs vehicle (% change vs vehicle); higher = higher incidence or increase relative to vehicle control
Experimental: as §1, with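 “x100 normalised to in-plate vehicle controls.” for “x100.”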

Dugesia japonica [3] = test: C-shape incidence (% planarians (vehicle-normalised)); higher = higher incidence or increase relative to vehicle control
Method in brief: (§2)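 D. japonica planarians (fasted 5–7 days), one per well in 200 μL in sealed 48-well plates, were screened within 15 minutes–3 hours of exposure to at least 5 concentrations. Body shapes (contraction, C-shape, corkscrew, hyperkinesis) were scored manually and blind by a researcher; worms that crawled out were excluded. The value is the incidence of the given shape, or of any abnormal shape, ×100, normalised to in-plate vehicle controls, with negatives set to 0.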

Dugesia japonica [4] = test: corkscrew incidence (% planarians (vehicle-normalised)); higher = higher incidence or increase relative to vehicle control
Method in brief: as §2

Dugesia japonica [5] = test: stickiness incidence (% planarians (vehicle-normalised)); higher = higher incidence or increase relative to vehicle control
Method in brief: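 Stickiness was scored as a yes-or-no outcome in fasted Dugesia japonica planarians, and incidence was normalised to the vehicle incidence on the same plate. Each worm sat alone in a well of a sealed 48-well plate holding 200 μL of solution and was tested 15 min–3 h after exposure to half- or quarter-log concentration series, with 0.5% DMSO or water as vehicle. Technical triplicates were pooled (n = 24), negative values were set to 0, values were multiplied by 100, and worms that crawled out were excluded.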

Dugesia japonica [6] = test: hyperkinesis incidence (% planarians (vehicle-normalised)); higher = higher incidence or increase relative to vehicle control
Method in brief: as §2

Dugesia japonica [7] = test: speed first 30 s blue light vs vehicle (% change vs vehicle); higher = higher incidence or increase relative to vehicle control
Method in brief: (§3)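 Crawling speed is given as the median percent change after each worm was normalised to its plate's vehicle median, leaving out worms that crawled out. Fasted, intact Dugesia japonica were placed one per well in 200 μL in 48-well plates and tracked automatically in darkness or during blue-light periods, 15 min to 3 h after exposure in 0.5% DMSO or water vehicle. Runs used eight worms per concentration per plate in technical triplicate (n = 24).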

Dugesia japonica [8] = test: speed second 30 s blue light vs vehicle (% change vs vehicle); higher = higher incidence or increase relative to vehicle control
Method in brief: as §3

Dugesia japonica [9] = test: pharynx extrusion incidence (% planarians (vehicle-normalised)); higher = higher incidence or increase relative to vehicle control
Method in brief: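 Intact, fasted Dugesia japonica were placed one per well in 48-well plates with 200 μL each and scored 15 min to 3 h after exposure in either water or 0.5% DMSO vehicle. Pharynx extrusion was judged manually and blind as a body-shape category. Each concentration used eight worms per plate in technical triplicate (n = 24). Incidence was normalised to vehicle controls on the same plate, negative values were set to 0, and worms that crawled out were excluded.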

Dugesia japonica [10] = test: loss of phototaxis incidence (% planarians (vehicle-normalised)); higher = higher incidence or increase relative to vehicle control
Method in brief: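 Intact, fasted Dugesia japonica were tested 15 min to 3 h after exposure in 0.5% DMSO or water vehicle, one per well of a 48-well plate in 200 μL. Automated object tracking was used to score each worm for loss of phototaxis as a yes/no result. With eight worms per concentration per plate in technical triplicate (n = 24), worms that crawled out were excluded. The incidence rate ×100 was normalised to in-plate vehicle controls and negatives were set to 0.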

Dugesia japonica [11] = test: total locomotor bursts minus vehicle (bursts difference vs vehicle); higher = higher incidence or increase relative to vehicle control
Method in brief: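 Planarians of the species Dugesia japonica, fasted beforehand, received half- or quarter-log concentration series in 0.5% DMSO or water, one animal per well of a sealed 48-well plate holding 200 μL solution. They were tested 15 min–3 h after exposure in technical triplicates totalling n = 24. Each animal's count of total locomotor bursts, an unstimulated behaviour obtained by image-based object tracking, had the plate vehicle-control median subtracted without ×100 scaling. The figure given is the median normalised response, with crawled-out worms excluded.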

Dugesia japonica [12] = test: noxious heat displacement strength vs vehicle (% change vs vehicle); higher = higher incidence or increase relative to vehicle control
Method in brief: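 In the scrunching assay, displacement strength under noxious heat was tracked automatically in intact, fasted Dugesia japonica and expressed as the median percent change from the plate's vehicle median. Testing took place 15 min to 3 h after exposure in 0.5% DMSO or water vehicle, with one worm per well of a 48-well plate in 200 μL. Eight worms per concentration per plate were tested in technical triplicate (n = 24), and any that crawled out were left out.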

Dugesia japonica [13] = test: contracted body shape incidence (% planarians (vehicle-normalised)); higher = higher incidence or increase relative to vehicle control
Method in brief: as §2

Dugesia japonica [14] = test: anxiety (time in outer well region) vs vehicle (% change vs vehicle); higher = higher incidence or increase relative to vehicle control
Method in brief: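 Each planarian's time in the outer portion of its well was scored, worms that crawled out were dropped, and the median normalized response is reported. Fasted 5–7 days, D. japonica worms were tested singly in 200 μL in sealed 48-well plates at at least 5 concentrations, n = 24 per concentration, within 15 minutes–3 hours. Each response was normalized by dividing by, or subtracting, the plate vehicle median and multiplying by 100.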

Dugesia japonica [15] = test: any abnormal body shape incidence (% planarians (vehicle-normalised)); higher = higher incidence or increase relative to vehicle control
Method in brief: as §2

Dugesia japonica [16] = test: resting fraction in dark vs vehicle (difference in fraction x100 vs vehicle); higher = higher incidence or increase relative to vehicle control
Method in brief: (§4)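 Resting fraction in the dark or under blue light is reported as a median from automated tracking of intact, fasted Dugesia japonica. Worms were held one per well of a 48-well plate in 200 μL and tested 15 min to 3 h after exposure in 0.5% DMSO or water vehicle. Each worm's value was its difference from the plate's vehicle median multiplied by 100, and worms that crawled out were excluded.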

Dugesia japonica [17] = test: loss of heat-induced scrunching incidence (% planarians (vehicle-normalised)); higher = higher incidence or increase relative to vehicle control
Method in brief: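 The incidence of worms lacking a scrunching response to a noxious heat stimulus, normalised to vehicle controls within each plate, is the value listed. It appears ×100 with negatives set to 0. Single D. japonica planarians in 200 μL per well of 48-well plates were exposed to at least 5 concentrations (n = 24 per concentration) and tested within 15 minutes–3 hours, excluding worms that crawled out.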

Dugesia japonica [18] = test: resting fraction in blue light vs vehicle (difference in fraction x100 vs vehicle); higher = higher incidence or increase relative to vehicle control
Method in brief: as §4

| SMILES | crawl-out incidence (Dugesia japonica [1]) | speed in dark (Dugesia japonica [2]) | C-shape incidence (Dugesia japonica [3]) | corkscrew incidence (Dugesia japonica [4]) | stickiness incidence (Dugesia japonica [5]) | hyperkinesis incidence (Dugesia japonica [6]) | speed first 30 s blue light (Dugesia japonica [7]) | speed second 30 s blue light (Dugesia japonica [8]) | pharynx extrusion incidence (Dugesia japonica [9]) | loss of phototaxis incidence (Dugesia japonica [10]) | total locomotor bursts minus vehicle (Dugesia japonica [11]) | noxious heat displacement strength (Dugesia japonica [12]) | contracted body shape incidence (Dugesia japonica [13]) | anxiety (Dugesia japonica [14]) | any abnormal body shape incidence (Dugesia japonica [15]) | resting fraction in dark (Dugesia japonica [16]) | loss of heat-induced scrunching incidence (Dugesia japonica [17]) | resting fraction in blue light (Dugesia japonica [18]) |
| --- | --- | --- | --- | --- | --- | --- | --- | --- | --- | --- | --- | --- | --- | --- | --- | --- | --- | --- |
| CN1CCN(CCCN2c3ccccc3Sc3ccc(Cl)cc32)CC1 [prochloroperazine] (1 µM) | 4.17 | -31 | 0 | 0 | ≤ 0 | 4.35 | -22.6 | -13.4 | 0 | 4.35 | 10.5 | -10.7 | 0 | 9.41 | 4.35 | 7.43 | 26.1 | 5.37 |
| Cc1ncc2n1-c1ccc(Cl)cc1C(c1ccccc1F)=NC2 [midazolam] (10 µM) | 0 | -4.66 | 0 | 0 | ≤ 0 | 8.33 | 12.7 | 6.88 | 0 | ≤ 0 | -1.5 | -18.8 | 0 | -4.77 | 8.33 | 0.667 | ≤ 0 | -0.5 |
| CCCCNc1c(C(=O)OCC)c(C)nc2c1cnn2CC [tracazolate hydrochloride] (1 µM) | 0 | -16.4 | 0 | 0 | 8.33 | 0 | -20 | -8.21 | 0 | ≤ 0 | 3.25 | -26.2 | 0 | -16.4 | 0 | 1.34 | ≤ 0 | 0.18 |
| CN(C)CCCN1c2ccccc2CCc2ccccc21 [imipramine] (0.316 µM) | 0 | -16.2 | 0 | 0 | ≤ 0 | 0 | -17.6 | -12.2 | 0 | 4.17 | 5.25 | 23.7 | 4.17 | -0.7 | 8.33 | 5.24 | ≤ 0 | 1.3 |
| CN1CCN(C2=Nc3cc(Cl)ccc3Nc3ccccc32)CC1 [clozapine] (1 µM) | 0 | -73.5 | 0 | 0 | 4.17 | 8.33 | -82 | -79.8 | 0 | 8.33 | 38.8 | -43.5 | 4.17 | -1.98 | 8.33 | 55.3 | 4.17 | 36.4 |
| O=C(CCCN1CCC(O)(c2ccc(Br)cc2)CC1)c1ccc(F)cc1 [bromperidol] (1 µM) | 12.5 | -18.6 | 0 | 4.35 | ≤ 0 | 17.4 | -39.2 | -17.1 | 0 | ≤ 0 | 2.5 | -35.1 | 0 | 7.55 | 17.4 | 14.6 | 30.4 | 17.6 |
| CNCC[C@H](Oc1cccc2ccccc12)c1cccs1 [s-duloxetine] (1 µM) | 4.17 | 13.6 | 0 | 0 | 13 | 0 | 34.6 | -13.5 | 0 | 17.4 | 7 | -35.3 | 0 | 12.8 | 0 | -7.56 | 13 | 9.83 |
